By IC50 is commonly meant the concentration that inhibits the measured activity by half.

The values that follow come from patent US10150764B2, “Substituted benzene compounds” (Epizyme, Inc., priority 2013, dated 2018).

Each structure is given as a SMILES string.

For test [1], the target named is wild-type EZH2 (PRC2 enzyme) (Homo sapiens (Human), UniProt Q15910). Kind of test: PRC2 enzyme assay on peptide substrate, wild-type EZH2 (H3K27me0 peptide, 3H-SAM Flashplate). Type of test: biochemical. To be noted: wild-type PRC2 4 nM, read-out: WT EZH2 IC50.
Description: (§1) Human PRC2 enzymes were purified as 4-component enzyme complexes co-expressed in Spodoptera frugiperda (sf9) cells using a baculovirus expression system. […] The EED subunit contained an N-terminal FLAG tag that was used to purify the entire 4-component complex from sf9 cell lysates.
(§2) The assays were all performed in a buffer consisting of 20 mM bicine (pH=7.6), 0.5 mM DTT, 0.005% BSG and 0.002% Tween20, prepared on the day of use. […] DMSO (1 μL) was added to columns 11, 12, 23, 24, rows A-H for the maximum signal control, and SAH, a known product and inhibitor of PRC2 (1 μL) was added to columns 11, 12, 23, 24, rows I-P for the minimum signal control. A cocktail (40 μL) containing the wild-type PRC2 enzyme and H3K27me0 peptide or any of the Y641 mutant enzymes and H3K27me2 peptide was added by Multidrop Combi (Thermo). The compounds were allowed to incubate with PRC2 for 30 min at 25° C., then a cocktail (10 μL) containing a mixture of non-radioactive and ^3H-SAM was added to initiate the reaction (final volume=51 μL). […] The assays were stopped by the addition of non-radioactive SAM (10 μL) to a final concentration of 600 μM, which dilutes the ^3H-SAM to a level where its incorporation into the peptide substrate is no longer detectable. 50 of the reaction in the 384-well polypropylene plate was then transferred to a 384-well Flashplate and the biotinylated peptides were allowed to bind to the streptavidin surface for at least 1 h before being washed three times with 0.1% Tween20 in a Biotek ELx405 plate washer. The plates were then read in a PerkinElmer TopCount platereader to measure the quantity of ^3H-labeled peptide bound to the Flashplate surface, measured as disintegrations per minute (dpm) or alternatively, referred to as counts per minute (cpm).
The target of test [2] is EZH2 Y641F mutant (PRC2 enzyme) (Homo sapiens (Human), UniProt Q15910, Y641F). Kind of test: PRC2 enzyme assay on peptide substrate, EZH2 Y641F mutant (H3K27me2 peptide, 3H-SAM Flashplate). The format is biochemical. To be noted: Y641F mutant PRC2 4 nM.
Description: as §1, §2
For test [3], the system named is H3K27me3 in WSU-DLCL2 cells. Kind of test: WSU-DLCL2 methylation assay (H3K27me3 ELISA). Type of test: cell-based, human. To be noted: Homo sapiens, WSUDLCL2, 96 hours incubation, H3K27me3 normalised to total H3. For orientation: ELISA stands for enzyme-linked immunosorbent assay.
Excerpt: WSU-DLCL2 Methylation Assay
WSU-DLCL2 suspension cells were purchased from DSMZ (German Collection of Microorganisms and Cell Cultures, Braunschweig, Germany). RPMI/Glutamax Medium, Penicillin-Streptomycin, Heat Inactivated Fetal Bovine Serum, and D-PBS were purchased from Life Technologies, Grand Island, N.Y., USA. Extraction Buffer and Neutralization Buffer (5×) were purchased from Active Motif, Carlsbad, Calif., USA. Rabbit anti-Histone H3 antibody was purchased from Abcam, Cambridge, Mass., USA. Rabbit anti-H3K27me3 and HRP-conjugated anti-rabbit-IgG were purchased from Cell Signaling Technology, Danvers, Mass., USA. TMB “Super Sensitive” substrate was sourced from BioFX Laboratories, Owings Mills, Md., USA. IgG-free Bovine Serum Albumin was purchased from Jackson ImmunoResearch, West Grove, Pa., USA. PBS with Tween (10×PBST) was purchased from KPL, Gaithersburg, Md., USA. Sulfuric Acid was purchased from Ricca Chemical, Arlington, Tex., USA. Immulon ELISA plates were purchased from Thermo, Rochester, N.Y., USA. V-bottom cell culture plates were purchased from Corning Inc., Corning, N.Y., USA. V-bottom polypropylene plates were purchased from Greiner Bio-One, Monroe, N.C., USA.
WSU-DLCL2 suspension cells were maintained in growth medium (RPMI 1640 supplemented with 10% v/v heat inactivated fetal bovine serum and 100 units/mL penicillin-streptomycin) and cultured at 37° C. under 5% CO2. Under assay conditions, cells were incubated in Assay Medium (RPMI 1640 supplemented with 20% v/v heat inactivated fetal bovine serum and 100 units/mL penicillin-streptomycin) at 37° C. under 5% CO2 on a plate shaker.
WSU-DLCL2 cells were seeded in assay medium at a concentration of 50,000 cells per mL to a 96-well V-bottom cell culture plate with 200 μL per well. […] Plates were incubated on a titer-plate shaker at 37° C., 5% CO2 for 96 hours. After four days of incubation, plates were spun at 241×g for five minutes and medium was aspirated gently from each well of cell plate without disturbing cell pellet. Pellet was resuspended in: 200 μL DPBS and plates were spun again at 241×g for five minutes. The supernatant was aspirated and cold (4° C.) Extraction buffer (100 μL) was added per well. Plates were incubated at 4° C. on orbital shaker for two hours. Plates were spun at 3427×g×10 minutes. Supernatant (80 μL per well) was transferred to its respective well in 96 well V-bottom polypropylene plate. Neutralization Buffer 5× (20 μL per well) was added to V-bottom polypropylene plate containing supernatant. V-bottom polypropylene plates containing crude histone preparation (CHP) were incubated on orbital shaker×five minutes. Crude Histone Preparations were added (2 μL per well) to each respective well into duplicate 96 well ELISA plates containing 100 μL Coating Buffer (1×PBS+BSA 0.05% w/v). Plates were sealed and incubated overnight at 4° C. The following day, plates were washed three times with 300 μL per well 1×PBST. […] For H3K27me3 detection, 100 μL of HRP conjugated anti-rabbit IgG antibody diluted to 1:4000 in ELISA diluent was added per well. Plates were incubated at room temperature for 90 minutes. […] TMB substrate 100 μL was added per well. Histone H3 plates were incubated for five minutes at room temperature. H3K27me3 plates were incubated for 10 minutes at room temperature. The reaction was stopped with sulfuric acid 1N (100 μL per well). Absorbance for each plate was read at 450 nm.
Each plate included eight control wells DMSO only treatment (Minimum Inhibition) as well as eight control wells for maximum inhibition (Background wells).
The average of the ratio values for each control type was calculated and used to determine the percent inhibition for each test well in the plate. Test compound was serially diluted three-fold in DMSO for a total of ten test concentrations, beginning at 25 μM.
The subject of another test is WSU-DLCL2 cells. Put plainly: Cell proliferation analysis, WSU-DLCL2 (Cell Titer Glo). To be noted: Homo sapiens, WSUDLCL2, 144 h, 6 days incubation, ATP readout. The format is cell-based. The source says:
Cell Proliferation Analysis
WSU-DLCL2 suspension cells were purchased from DSMZ (German Collection of Microorganisms and Cell Cultures, Braunschweig, Germany), RPMI/Glutamax Medium, Penicillin-Streptomycin, Heat Inactivated Fetal Bovine Serum were purchased from Life Technologies, Grand Island, N.Y., USA, V-bottom polypropylene 384-well plates were purchased from Greiner Bio-One, Monroe, N.C., USA. Cell culture 384-well white opaque plates were purchased from Perkin Elmer, Waltham, Mass., USA. Cell-Titer Glo® was purchased from Promega Corporation, Madison, Wis., USA. SpectraMax M5 plate reader was purchased from Molecular Devices LLC, Sunnyvale, Calif., USA.
WSU-DLCL2 suspension cells were maintained in growth medium (RPMI 1640 supplemented with 10% v/v heat inactivated fetal bovine serum and cultured at 37° C. under 5% CO2. Under assay conditions, cells were incubated in Assay Medium (RPMI 1640 supplemented with 20% v/v heat inactivated fetal bovine serum and 100 units/mL penicillin-streptomycin) at 37° C. under 5% CO2.
For the assessment of the effect of compounds on the proliferation of the WSU-DLCL2 cell line, exponentially growing cells were plated in 384-well white opaque plates at a density of 1250 cell/ml in a final volume of 50 μl of assay medium. A compound source plate was prepared by performing triplicate nine-point 3-fold serial dilutions in DMSO, beginning at 10 mM (final top concentration of compound in the assay was 20 μM and the DMSO was 0.2%). A 100 nL aliquot from the compound stock plate was added to its respective well in the cell plate. […] After addition of compounds, assay plates were incubated for 6 days at 37° C., 5% CO2, relative humidity >90% for 6 days. Cell viability was measured by quantization of ATP present in the cell cultures, adding 35 μl of Cell Titer Glo® reagent to the cell plates. Luminescence was read in the SpectraMax M5. The concentration inhibiting cell viability by 50% was determined using a 4-parametric fit of the normalized dose response curves.
On the technique in general: In ATP-based viability assays light output follows the ATP content of the culture.

EZH2 Y641F mutant (PRC2 enzyme), sequence (Q15910 whole entry Y641F): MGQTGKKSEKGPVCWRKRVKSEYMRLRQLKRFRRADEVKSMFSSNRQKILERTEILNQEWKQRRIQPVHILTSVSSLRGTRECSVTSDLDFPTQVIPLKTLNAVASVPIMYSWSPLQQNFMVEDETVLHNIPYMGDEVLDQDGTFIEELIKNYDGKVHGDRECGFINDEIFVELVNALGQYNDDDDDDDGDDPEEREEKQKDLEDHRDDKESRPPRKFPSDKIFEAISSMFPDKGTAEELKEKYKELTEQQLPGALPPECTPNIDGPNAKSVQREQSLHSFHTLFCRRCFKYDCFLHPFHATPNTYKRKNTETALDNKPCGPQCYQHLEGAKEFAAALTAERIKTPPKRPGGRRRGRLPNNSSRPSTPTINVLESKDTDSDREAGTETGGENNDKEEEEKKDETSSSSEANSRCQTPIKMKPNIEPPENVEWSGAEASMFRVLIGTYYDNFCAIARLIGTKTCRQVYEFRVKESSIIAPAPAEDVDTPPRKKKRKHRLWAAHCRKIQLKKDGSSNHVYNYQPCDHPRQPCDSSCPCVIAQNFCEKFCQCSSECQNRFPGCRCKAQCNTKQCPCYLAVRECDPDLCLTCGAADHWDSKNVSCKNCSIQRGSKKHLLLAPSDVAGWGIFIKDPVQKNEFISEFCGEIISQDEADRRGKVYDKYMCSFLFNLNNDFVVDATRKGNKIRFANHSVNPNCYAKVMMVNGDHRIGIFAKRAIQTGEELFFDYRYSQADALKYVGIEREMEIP
EZH2 Y641F mutant (PRC2 enzyme), sequence (O75530 whole entry partner): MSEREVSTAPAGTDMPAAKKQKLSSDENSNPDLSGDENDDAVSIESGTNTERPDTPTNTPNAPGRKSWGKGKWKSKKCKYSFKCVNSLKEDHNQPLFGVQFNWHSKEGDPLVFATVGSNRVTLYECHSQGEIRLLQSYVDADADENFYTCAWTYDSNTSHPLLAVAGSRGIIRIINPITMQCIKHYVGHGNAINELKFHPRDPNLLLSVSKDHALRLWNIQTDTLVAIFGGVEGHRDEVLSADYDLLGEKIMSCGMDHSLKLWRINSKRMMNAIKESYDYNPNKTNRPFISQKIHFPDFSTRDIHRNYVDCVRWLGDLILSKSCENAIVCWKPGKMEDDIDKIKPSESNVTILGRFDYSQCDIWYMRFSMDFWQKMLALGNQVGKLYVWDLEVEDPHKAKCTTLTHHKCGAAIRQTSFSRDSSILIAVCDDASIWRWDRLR
EZH2 Y641F mutant (PRC2 enzyme), sequence (Q15022 whole entry partner): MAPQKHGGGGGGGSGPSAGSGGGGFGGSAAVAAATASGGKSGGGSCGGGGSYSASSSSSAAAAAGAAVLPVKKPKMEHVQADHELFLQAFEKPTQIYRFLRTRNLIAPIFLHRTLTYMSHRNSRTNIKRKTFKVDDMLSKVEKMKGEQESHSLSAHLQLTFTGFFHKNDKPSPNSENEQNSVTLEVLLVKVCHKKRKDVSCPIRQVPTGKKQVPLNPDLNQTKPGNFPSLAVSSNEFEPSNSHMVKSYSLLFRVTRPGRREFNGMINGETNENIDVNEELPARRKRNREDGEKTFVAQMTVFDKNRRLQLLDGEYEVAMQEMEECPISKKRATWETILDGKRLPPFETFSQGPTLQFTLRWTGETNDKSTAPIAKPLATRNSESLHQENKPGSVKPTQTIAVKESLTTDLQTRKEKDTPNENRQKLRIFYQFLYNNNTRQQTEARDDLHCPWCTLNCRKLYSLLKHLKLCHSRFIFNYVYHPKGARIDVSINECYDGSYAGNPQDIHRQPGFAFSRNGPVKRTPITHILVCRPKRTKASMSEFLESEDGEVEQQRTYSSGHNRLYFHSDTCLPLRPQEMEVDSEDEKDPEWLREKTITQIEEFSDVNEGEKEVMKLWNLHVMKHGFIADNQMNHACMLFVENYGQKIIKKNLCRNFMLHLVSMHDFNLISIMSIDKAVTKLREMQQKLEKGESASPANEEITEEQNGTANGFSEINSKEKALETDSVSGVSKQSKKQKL
EZH2 Y641F mutant (PRC2 enzyme), sequence (Q09028 whole entry partner): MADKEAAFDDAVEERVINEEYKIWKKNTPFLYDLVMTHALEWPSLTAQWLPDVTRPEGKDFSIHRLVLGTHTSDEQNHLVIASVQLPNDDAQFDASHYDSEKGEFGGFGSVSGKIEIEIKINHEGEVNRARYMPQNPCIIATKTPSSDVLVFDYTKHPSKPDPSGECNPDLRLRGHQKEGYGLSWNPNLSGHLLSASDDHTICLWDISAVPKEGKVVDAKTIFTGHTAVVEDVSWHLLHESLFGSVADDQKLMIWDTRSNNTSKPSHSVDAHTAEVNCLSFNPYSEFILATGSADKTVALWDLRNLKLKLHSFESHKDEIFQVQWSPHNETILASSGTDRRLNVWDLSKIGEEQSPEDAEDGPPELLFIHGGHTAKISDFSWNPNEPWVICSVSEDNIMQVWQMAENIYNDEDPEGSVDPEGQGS
wild-type EZH2 (PRC2 enzyme), sequence (Q15910 whole entry): as the sequence (Q15910 whole entry Y641F) above, with F641Y counted along it
wild-type EZH2 (PRC2 enzyme), sequence (O75530 whole entry partner): as the sequence (O75530 whole entry partner) above
wild-type EZH2 (PRC2 enzyme), sequence (Q15022 whole entry partner): as the sequence (Q15022 whole entry partner) above
wild-type EZH2 (PRC2 enzyme), sequence (Q09028 whole entry partner): as the sequence (Q09028 whole entry partner) above

Take `CCn1[nH]c(=O)c(CNC(=O)c2cc(Cl)cc(N(CC)[C@H]3CC[C@H](N(C)C)CC3)c2C)c1C` [Compound 52, 5-chloro-3-(((trans)-4-(dimethylamino)cyclohexyl)(ethyl)amino)-N-((1-ethyl-5-methyl-3-oxo-2,3-dihydro-1H-pyrazol-4-yl)methyl)-2-methylbenzamide]: the IC50 was determined as 367 nM in test [1], 30 nM in test [2], 3040 nM in test [3] and 7340 nM in the test on WSU-DLCL2 cells.

Regarding `CCN(c1cc(Cl)cc(C(=O)NCc2c(C)n(C)[nH]c2=O)c1C)[C@H]1CC[C@H](N(C)Cc2ccc(OC)cc2)CC1` [Compound 56, 5-chloro-N-((1,5-dimethyl-3-oxo-2,3-dihydro-1H-pyrazol-4-yl)methyl)-3-(ethyl((trans)-4-((4-methoxybenzyl)(methyl)amino)cyclohexyl)amino)-2-methylbenzamide], the 50% inhibitory concentration (IC50) in test [1] worked out at 25 nM; in test [2] it was 11 nM; in test [3], 4680 nM; with WSU-DLCL2 cells, 10700 nM.

Regarding `CCN(c1cc(Cl)cc(C(=O)NCc2c(C)n(C)[nH]c2=O)c1C)[C@H]1CC[C@H](N(C)Cc2cccc(OC)c2)CC1` [Compound 57, 5-chloro-N-((1,5-dimethyl-3-oxo-2,3-dihydro-1H-pyrazol-4-yl)methyl)-3-(ethyl((trans)-4-((3-methoxybenzyl)(methyl)amino)cyclohexyl)amino)-2-methylbenzamide], the IC50 in test [1] worked out at 20 nM; in test [2], 10 nM; in test [3], 6160 nM; in the test with WSU-DLCL2 cells, 6050 nM.

As for `CCn1[nH]c(=O)c(CNC(=O)c2cc(Cl)cc(N(CC)[C@H]3CC[C@H](N(C)Cc4cccc(OC)c4)CC3)c2C)c1C` [Compound 63, 5-chloro-3-(ethyl ((trans)-4-((3-methoxybenzyl)-(methyl)-amino)-cyclohexyl)amino)-N-((1-ethyl-5-methyl-3-oxo-2,3-dihydro-1H-pyrazol-4-yl)methyl)-2-methylbenzamide], the half-maximal inhibitory concentration (IC50) in test [1] is 46 nM; in test [2], 12 nM; in test [3], greater than 50000 nM; with WSU-DLCL2 cells it was 1550 nM.

In the case of `CCn1nc(OC)c(CNC(=O)c2cc(Cl)cc(N(CC)[C@H]3CC[C@H](N(C)Cc4ccc(OC)cc4)CC3)c2C)c1C` [Compound 70, 5-chloro-3-(ethyl((trans)-4-((4-methoxybenzyl)-(methyl)-amino)-cyclohexyl)-amino)-N-((1-ethyl-3-methoxy-5-methyl-1H-pyrazol-4-yl)methyl)-2-methylbenzamide], the IC50 in test [1] came to 39 nM; in test [2], 12 nM; in test [3], 4060 nM; in the test with WSU-DLCL2 cells it was 3610 nM.

As for `CCN(c1cc(Cl)cc(C(=O)NCc2c(N3CCCC3)n(C)[nH]c2=O)c1C)[C@H]1CC[C@H](N(C)C)CC1` [Compound 81, 5-chloro-3-(((trans)-4-(dimethylamino)cyclohexyl) (ethyl)amino)-2-methyl-N-((1-methyl-3-oxo-5-(pyrrolidin-1-yl)-2,3-dihydro-1H-pyrazol-4-yl)methyl)benzamide], the IC50 in test [1] stood at 18 nM; in test [2], 5 nM; in test [3] it was 2190 nM; with WSU-DLCL2 cells, 1260 nM.

Turning to `CCOc1n[nH]c(C)c1CNC(=O)c1cc(Cl)cc(N(CC)[C@H]2CC[C@H](N(C)C)CC2)c1C` [Compound 85, 5-chloro-3-(((trans)-4-(dimethylamino)cyclohexyl)(ethyl)amino)-N-((3-ethoxy-5-methyl-1H-pyrazol-4-yl)methyl)-2-methylbenzamide], the IC50 is 35200 nM in test [1], 7520 nM in test [2], greater than 50000 nM in test [3] and 6380 nM in the test on WSU-DLCL2 cells.

On to `CCN(c1cc(Cl)cc(C(=O)NCc2c(OC)n(C)[nH]c2=O)c1C)[C@H]1CC[C@H](N(C)C)CC1` [Compound 86, 5-chloro-3-(ethyl((trans)-4-(dimethylamino)cyclohexyl]amino)-N-((5-methoxy-1-methyl-3-oxo-2,3-dihydro-1H-pyrazol-4-yl)methyl)-2-methylbenzamide], for which the IC50 in test [1] stood at 21 nM; in test [2] it was 1 nM; in test [3] it was 1790 nM; with WSU-DLCL2 cells, 1130 nM.
